Like-named read-outs stand apart in the source and are kept apart here.
Legend:
Assay type in all cases: cell-based, human
CEM-C1 = test: 3H thymidine proliferation assay, CEM-C1
Method: (§1) This example generally describes the procedures used to assay the antiproliferative activity of compounds of this invention or their conjugates. Human tumor cell lines were obtained from the American Type Culture Collection (ATCC), P.O. Box 1549, Manassas, Va. 20108, USA, and cultured according to instruction from the ATCC. Cells were seeded at 1.0×10^3 or 1.0×10^4 cells/well in 96-well plates for 3 h for ATP assays or ^3H thymidine assays, respectively. 1:3 serial dilutions of free (unconjugated) compounds or their conjugates were added to the wells. Plates were allowed to incubate for 24 to 72 h. The ^3H thymidine plates were pulsed with 1.0 μCi of ^3H-thymidine per well for the last 24 hours of the total incubation period, harvested, and read on a Top Count Scintillation Counter (Packard Instruments, Meriden, Conn.). ATP levels in the ATP plates were measured using the […]-GLO® Luminescent Cell Viability kit following the manufacturer's manual and read on a GLOMAX® 20/20 luminometer (both from Promega, Madison, Wis., USA). The EC50 values—the concentration at which an agent inhibits or reduces cell proliferation by 50% —were determined using PRISM™ software, version 4.0 (GraphPad Software, La Jolla, Calif., USA).
(§2) Using the ^3H thymidine or the ATP luminescence assay, or both, the activities of compounds of this invention were assayed against the following cancer cell lines: HCT-15 (colorectal cancer, multi-drug resistant (MDR)); Hep3B (liver cancer); LNCaP (prostate cancer, androgen receptor positive (AR^+)); MDA-MB-231 (breast cancer, estrogen receptor, progesterone receptor, and Her2 negative (triple negative)); A2058 (melanoma); U-87 MG (glioblastoma); NCI-H460 (NSCLC); A549 (NSCLC); HPAC (pancreatic cancer, primary); PC3 (prostate cancer, AR); BT474 (breast cancer, Her2 highly positive (Her2hi)); SKOV3 (ovarian cancer, Her2hi); 786-O (renal cancer); UO-31 (renal cancer, MDR); NCI-H740 (SCLC); DMS53 (SCLC); SK-BR3 (breast cancer, Her2hi); ZR-75 (breast cancer, estrogen receptor positive); OVCAR3 (ovarian cancer); HL-60 (APL); OVCAR8/Adr (ovarian cancer, MDR); CEM-Cl (ALL); Nomo-1 (AML); RPMI-8226 (MM)); Raji (lymphoma); SW-480 (colorectal cancer, metastatic); SW-620 (colorectal cancer); and H226 (lung cancer). (Not all compounds were assayed against all cell lines.)
(§3) Table 2 provides the data for proliferation assays using the ^3H thymidine method, with an incubation period of 72 h.

Hep3B = test: 3H thymidine proliferation assay, Hep3B
Method: as §1, §2, §3

HL-60 [1] = test: ATP luminescence proliferation assay, HL-60
Method: as §1, §2
FIGS. 12a and 12b show illustrative plots for ATP luminescence proliferation assays for a second set of compounds of this invention, against HL-60 and 786-O cells, respectively, with an incubation period of 72 h. FIGS. 12c and 12d show the plots for ^3H thymidine proliferation assays for the same set of compounds, again against HL-60 and 786-O cells, respectively, with a 72 h incubation period. In each instance, doxorubicin was used as a comparative compound.
(§4) Table 3 provides the data for the ATP luminescence proliferation assays, with an incubation period of 48, 72, or 96 h, as noted.

U-87 MG [2] = test: ATP luminescence proliferation assay, U-87 MG
Method: as §1, §2, §4

PC3 = test: ATP luminescence proliferation assay, PC3
Method: as §1, §2, §4

HL-60 [3] = test: 3H thymidine proliferation assay, HL-60
Method: as §1, §2, §3

CEM-Cl = test: ATP luminescence proliferation assay, CEM-C1
Method: as §1, §2, §4

U-87 MG [4] = test: 3H thymidine proliferation assay, U-87 MG
Method: as §1, §2, §3

Nomo-1 = test: 3H thymidine proliferation assay, Nomo-1
Method: as §1, §2, §3

SW-480 = test: ATP luminescence proliferation assay, SW-480
Method: as §1, §2, §4

UO-31 [5] = test: 3H thymidine proliferation assay, UO-31
Method: as §1, §2, §3

BT474 = test: ATP luminescence proliferation assay, BT474
Method: as §1, §2, §4

DMS53 = test: 3H thymidine proliferation assay, DMS53
Method: as §1, §2, §3

H740 = test: 3H thymidine proliferation assay, H740
Method: as §1, §2, §3

SKOV3 = test: ATP luminescence proliferation assay, SKOV3
Method: as §1, §2, §4

LNCaP = test: 3H thymidine proliferation assay, LNCaP
Method: as §1, §2, §3

ZR-75 = test: 3H thymidine proliferation assay, ZR-75
Method: as §1, §2, §3

UO-31 [6] = test: ATP luminescence proliferation assay, UO-31; conditions: ATP luminescence, UO-31, 48 h incubation; read-out: EC50 UO-31 (48 h)
Method: as §1, §2, §4

[7] = Homo sapiens, CEM/C1, read-out: EC50, CEM-C1, 3H thymidine method, 72 h incubation
[8] = Homo sapiens, Hep3B, read-out: EC50, Hep3B, 3H thymidine method, 72 h incubation
[9] = Homo sapiens, 72 h, read-out: EC50 U-87 MG (72 h), ATP luminescence, U-87 MG, 72 h incubation
[10] = Homo sapiens, PC-3, 48 h, read-out: EC50 PC3 (48 h), ATP luminescence, PC3, 48 h incubation
[11] = Homo sapiens, HL-60, read-out: EC50, HL-60, 3H thymidine method, 72 h incubation
[12] = Homo sapiens, CEM/C1, 72 h, read-out: EC50 CEM-C1 (72 h), ATP luminescence, CEM-C1, 72 h incubation
[13] = Homo sapiens, U-87 MG, read-out: EC50, U-87 MG, 3H thymidine method, 72 h incubation
[14] = Homo sapiens, NOMO-1, read-out: EC50, Nomo-1, 3H thymidine method, 72 h incubation
[15] = Homo sapiens, SW480, 96 h, read-out: EC50 SW480 (96 h), ATP luminescence, SW480, 96 h incubation
[16] = Homo sapiens, UO-31, read-out: EC50, UO-31, 3H thymidine method, 72 h incubation
[17] = Homo sapiens, BT-474, 48 h, read-out: EC50 BT474 (48 h), ATP luminescence, BT474, 48 h incubation
[18] = Homo sapiens, DMS-53, read-out: EC50, DMS53, 3H thymidine method, 72 h incubation
[19] = Homo sapiens, read-out: EC50, H740, 3H thymidine method, 72 h incubation
[20] = Homo sapiens, LNCaP, read-out: EC50, LNCaP, 3H thymidine method, 72 h incubation
[21] = 3H thymidine method, 72 h incubation, read-out: EC50, CEM-C1
[22] = 3H thymidine method, 72 h incubation, read-out: EC50, ZR-75
[23] = 3H thymidine method, 72 h incubation, read-out: EC50, Hep3B
[24] = ATP luminescence, HL-60, 72 h incubation, read-out: EC50 HL-60 (72 h)
[25] = ATP luminescence, 72 h incubation, read-out: EC50 U-87 MG (72 h)
[26] = ATP luminescence, PC3, 48 h incubation, read-out: EC50 PC3 (48 h)
[27] = 3H thymidine method, 72 h incubation, read-out: EC50, HL-60
[28] = ATP luminescence, CEM-C1, 72 h incubation, read-out: EC50 CEM-C1 (72 h)
[29] = 3H thymidine method, 72 h incubation, read-out: EC50, U-87 MG
[30] = 3H thymidine method, 72 h incubation, read-out: EC50, Nomo-1
[31] = ATP luminescence, SW480, 96 h incubation, read-out: EC50 SW480 (96 h)
[32] = 3H thymidine method, 72 h incubation, read-out: EC50, UO-31
[33] = ATP luminescence, BT474, 48 h incubation, read-out: EC50 BT474 (48 h)
[34] = 3H thymidine method, 72 h incubation, read-out: EC50, DMS53
[35] = 3H thymidine method, 72 h incubation, read-out: EC50, H740
[36] = ATP luminescence, SKOV3, 48 h incubation, read-out: EC50 SKOV3 (48 h)
[37] = 3H thymidine method, 72 h incubation, read-out: EC50, LNCaP

SMILES	EC50 (CEM-C1; [7])	EC50 (Hep3B; [8])	EC50 (U-87 MG [2]; [9])	EC50 (PC3; [10])	EC50 (HL-60 [3]; [11])	EC50 (CEM-C1; [21])	EC50 (ZR-75; [22])	EC50 (Hep3B; [23])	EC50 (U-87 MG [2]; [25])	EC50 (PC3; [26])	EC50 (HL-60 [3]; [27])	EC50 (CEM-Cl; [28])	EC50 (U-87 MG [4]; [29])	EC50 (Nomo-1; [30])	EC50 (SW-480; [31])	EC50 (UO-31 [5]; [32])	EC50 (BT474; [33])	EC50 (DMS53; [34])	EC50 (H740; [35])	EC50 (LNCaP; [37])	also measured
CC[C@H](C)[C@H](NC(=O)[C@H]1CCCCN1C)C(=O)N(C)[C@H](C[C@@H](OC)c1nc(C(=O)NC(Cc2ccccc2)C[C@H](C)C(=O)O)cs1)C(C)C (stereo partly drawn) [Compound 15]	0.93 nM	1.6 nM	8.6 nM	> 100 nM	0.6 nM																EC50 (HL-60 [1]; Homo sapiens, HL-60, 72 h, read-out: EC50 HL-60 (72 h), ATP luminescence, HL-60, 72 h incubation): 2.7 nM; EC50 (CEM-Cl; [12]): 2.6 nM; EC50 (U-87 MG [4]; [13]): 0.42 nM; EC50 (Nomo-1; [14]): 2.3 nM; EC50 (SW-480; [15]): 5.6 nM; EC50 (UO-31 [5]; [16]): 15 nM; EC50 (BT474; [17]): 3.5 nM; EC50 (DMS53; [18]): 37 nM; EC50 (H740; [19]): 2.3 nM; EC50 (SKOV3; Homo sapiens, SK-OV-3, 48 h, read-out: EC50 SKOV3 (48 h), ATP luminescence, SKOV3, 48 h incubation): 4.2 nM; EC50 (LNCaP; [20]): 27 nM
CC[C@H](C)[C@H](NC(=O)[C@H]1CCCCN1C)C(=O)N(C)[C@H](C[C@@H](OC)c1nc(C(=O)N[C@@H](Cc2ccccc2)C(=O)OC)cs1)C(C)C [Compound 16]						11 nM	> 100 nM	> 100 nM	> 100 nM	> 100 nM	8.9 nM	2.5 nM	> 100 nM	1.8 nM	48 nM	> 100 nM	19 nM	> 100 nM	> 100 nM	> 100 nM	EC50 (HL-60 [1]; [24]): 2.8 nM; EC50 (SKOV3; [36]): 18 nM
CC[C@H](C)[C@H](NC(=O)[C@H]1CCCCN1C)C(=O)N(C)[C@H](C[C@@H](OC)c1nc(C(=O)N[C@@H](Cc2ccc(N)cc2)CC(C)C(=O)O)cs1)C(C)C (stereo partly drawn) [Compound 51]						2 nM	1.3 nM	4.2 nM	7.6 nM	16 nM	4.2 nM	4.8 nM	0.75 nM	3.5 nM	13 nM	35 nM	11 nM	24 nM	37 nM	41 nM	EC50 (UO-31 [6]): > 100 nM; EC50 (SKOV3; ATP luminescence, SKOV3, 72 h incubation, read-out: EC50 SKOV3 (72 h)): 10 nM
CC[C@H](C)[C@H](NC(=O)[C@H]1CCCCN1C)C(=O)N(COC(=O)CC(C)C)[C@H](C[C@@H](OC(C)=O)c1nc(C(=O)N[C@@H](Cc2ccc(N)cc2)CC(C)C(=O)O)cs1)C(C)C (stereo partly drawn) [Compound 54]	0.38 nM	0.3 nM	1.6 nM	3.1 nM	0.53 nM																EC50 (ZR-75; Homo sapiens, ZR75, read-out: EC50, ZR-75, 3H thymidine method, 72 h incubation): 2.2 nM; EC50 (HL-60 [1]; Homo sapiens, HL-60, 48 h, read-out: EC50 HL-60 (48 h), ATP luminescence, HL-60, 48 h incubation): 2.5 nM; EC50 (CEM-Cl; [12]): 1.2 nM; EC50 (U-87 MG [4]; [13]): 0.11 nM; EC50 (Nomo-1; [14]): 0.77 nM; EC50 (SW-480; [15]): 1.6 nM; EC50 (UO-31 [5]; [16]): 1.3 nM; EC50 (BT474; [17]): 4.8 nM; EC50 (DMS53; [18]): 2 nM; EC50 (H740; [19]): 10 nM; EC50 (SKOV3; Homo sapiens, SK-OV-3, 72 h, read-out: EC50 SKOV3 (72 h), ATP luminescence, SKOV3, 72 h incubation): 1.3 nM; EC50 (LNCaP; [20]): 16 nM
CC[C@H](C)[C@H](NC(=O)[C@H]1CCCCN1C)C(=O)N(C)[C@H](C[C@@H](OC(C)=O)c1nc(C(=O)N[C@@H](Cc2ccc(N)cc2)C(=O)O)cs1)C(C)C [Compound 56]						> 100 nM	> 100 nM	> 100 nM	> 100 nM	> 100 nM	> 100 nM	> 100 nM	> 100 nM	> 100 nM	> 100 nM	> 100 nM	> 100 nM	> 100 nM	> 100 nM	> 100 nM	EC50 (HL-60 [1]; [24]): > 100 nM; EC50 (SKOV3; [36]): > 100 nM

Source: US20130204033A1, “ANTIPROLIFERATIVE COMPOUNDS, CONJUGATES THEREOF, METHODS THEREFOR, AND USES THEREOF” (Medarex, Inc., priority 2009, published 2013)
